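96-well plates; 48 h exposure; 5 concentrations. Endpoints by linear interpolation between flanking doses. Not reached: highest tested concentration assigned. Definition used: TGI = concentration required for complete inhibition of growth.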
What was measured:
Assay in all cases: inhibition of tumour cell growth, NCI panel, 48 h
HOP-92 NSCLC = test system: HOP-92 NSCLC
ACHN renal = test system: ACHN renal
HL-60(TB) leukemia = test system: HL-60(TB) leukemia
HOP-62 NSCLC = test system: HOP-62 NSCLC
COLO 205 colon = test system: COLO 205 colon
SNB-75 CNS = test system: SNB-75 CNS
M14 melanoma = test system: M14 melanoma
EKVX NSCLC = test system: EKVX NSCLC
MOLT-4 leukemia = test system: MOLT-4 leukemia
MDA-N = test system: MDA-N
786-0 renal = test system: 786-0 renal
SN12C renal = test system: SN12C renal
SK-MEL-28 melanoma = test system: SK-MEL-28 melanoma
OVCAR-4 ovarian = test system: OVCAR-4 ovarian
T-47D breast = test system: T-47D breast
SF-295 CNS = test system: SF-295 CNS
BT-549 breast = test system: BT-549 breast
NCI-H226 lung = test system: NCI-H226 lung
LOX IMVI melanoma = test system: LOX IMVI melanoma
MALME-3M melanoma = test system: MALME-3M melanoma
OVCAR-8 ovarian = test system: OVCAR-8 ovarian
SNB-19 CNS = test system: SNB-19 CNS
HCT-15 colon = test system: HCT-15 colon
UO-31 renal = test system: UO-31 renal
K-562 leukemia = test system: K-562 leukemia
NCI/ADR-RES ovarian = test system: NCI/ADR-RES ovarian
NCI-H522 lung = test system: NCI-H522 lung
SF-268 CNS = test system: SF-268 CNS
DU-145 prostate = test system: DU-145 prostate
HCT-116 colon = test system: HCT-116 colon
HT29 colon = test system: HT29 colon
SK-MEL-5 melanoma = test system: SK-MEL-5 melanoma
CCRF-CEM leukemia = test system: CCRF-CEM leukemia
MDA-MB-435 = test system: MDA-MB-435
HS 578T breast = test system: HS 578T breast
SK-OV-3 ovarian = test system: SK-OV-3 ovarian
U251 CNS = test system: U251 CNS
NCI-H460 lung = test system: NCI-H460 lung
RPMI-8226 leukemia = test system: RPMI-8226 leukemia
IGROV1 ovarian = test system: IGROV1 ovarian
SW-620 colon = test system: SW-620 colon
KM12 colon = test system: KM12 colon
OVCAR-3 ovarian = test system: OVCAR-3 ovarian
SK-MEL-2 melanoma = test system: SK-MEL-2 melanoma
MCF7 breast = test system: MCF7 breast
TK-10 renal = test system: TK-10 renal
NCI-H23 lung = test system: NCI-H23 lung
UACC-62 melanoma = test system: UACC-62 melanoma
PC-3 prostate = test system: PC-3 prostate
OVCAR-5 ovarian = test system: OVCAR-5 ovarian
A549 NSCLC = test system: A549 NSCLC
HCC-2998 colon = test system: HCC-2998 colon
MDA-MB-231 breast = test system: MDA-MB-231 breast
SF-539 CNS = test system: SF-539 CNS
RXF 393 renal = test system: RXF 393 renal
UACC-257 melanoma = test system: UACC-257 melanoma
CAKI-1 renal = test system: CAKI-1 renal

c1cc(-c2ccc(-c3ccc(-c4ccc(-c5cccc6nsnc56)[nH]4)c4nsnc34)[nH]2)c2nsnc2c1
TGI (HOP-92 NSCLC): > 100 µM | TGI (ACHN renal): > 100 µM | TGI (HL-60(TB) leukemia): 30.1 µM | TGI (HOP-62 NSCLC): > 100 µM | TGI (COLO 205 colon): > 100 µM | TGI (SNB-75 CNS): > 100 µM | TGI (M14 melanoma): > 100 µM | TGI (EKVX NSCLC): > 100 µM | TGI (MOLT-4 leukemia): > 100 µM | TGI (MDA-N): > 100 µM | TGI (786-0 renal): > 100 µM | TGI (SN12C renal): > 100 µM | TGI (SK-MEL-28 melanoma): > 100 µM | TGI (OVCAR-4 ovarian): > 100 µM | TGI (T-47D breast): > 100 µM | TGI (SF-295 CNS): > 100 µM | TGI (BT-549 breast): > 100 µM | TGI (NCI-H226 lung): > 100 µM | TGI (LOX IMVI melanoma): > 100 µM | TGI (MALME-3M melanoma): > 100 µM | TGI (OVCAR-8 ovarian): > 100 µM | TGI (SNB-19 CNS): > 100 µM | TGI (HCT-15 colon): > 100 µM | TGI (UO-31 renal): > 100 µM | TGI (K-562 leukemia): > 100 µM | TGI (NCI/ADR-RES ovarian): > 100 µM | TGI (NCI-H522 lung): > 100 µM | TGI (SF-268 CNS): > 100 µM | TGI (DU-145 prostate): > 100 µM | TGI (HCT-116 colon): > 100 µM | TGI (HT29 colon): > 100 µM | TGI (SK-MEL-5 melanoma): > 100 µM | TGI (CCRF-CEM leukemia): > 100 µM | TGI (MDA-MB-435): > 100 µM | TGI (HS 578T breast): > 100 µM | TGI (SK-OV-3 ovarian): > 100 µM | TGI (U251 CNS): > 100 µM | TGI (NCI-H460 lung): > 100 µM | TGI (RPMI-8226 leukemia): > 100 µM | TGI (IGROV1 ovarian): > 100 µM | TGI (SW-620 colon): > 100 µM | TGI (KM12 colon): > 100 µM | TGI (OVCAR-3 ovarian): > 100 µM | TGI (SK-MEL-2 melanoma): > 100 µM | TGI (MCF7 breast): > 100 µM | TGI (TK-10 renal): > 100 µM | TGI (NCI-H23 lung): > 100 µM | TGI (UACC-62 melanoma): > 100 µM | TGI (PC-3 prostate): > 100 µM | TGI (OVCAR-5 ovarian): > 100 µM | TGI (A549 NSCLC): > 100 µM | TGI (HCC-2998 colon): > 100 µM | TGI (MDA-MB-231 breast): > 100 µM

CCN1C(=O)C(=C/C=C/c2ccc(OC)cc2)C(=O)N(CC)C1=S
TGI (HOP-92 NSCLC): 28.9 µM | TGI (ACHN renal): 31.5 µM | TGI (HL-60(TB) leukemia): > 100 µM | TGI (HOP-62 NSCLC): 36.1 µM | TGI (COLO 205 colon): 36 µM | TGI (M14 melanoma): 52.5 µM | TGI (EKVX NSCLC): 78.9 µM | TGI (MOLT-4 leukemia): > 100 µM | TGI (MDA-N): 36.6 µM | TGI (786-0 renal): 32.6 µM | TGI (SN12C renal): 35.4 µM | TGI (OVCAR-4 ovarian): > 100 µM | TGI (T-47D breast): > 100 µM | TGI (SF-295 CNS): > 100 µM | TGI (BT-549 breast): 90.1 µM | TGI (NCI-H226 lung): > 100 µM | TGI (LOX IMVI melanoma): 32.6 µM | TGI (MALME-3M melanoma): 28 µM | TGI (OVCAR-8 ovarian): 44.7 µM | TGI (SNB-19 CNS): > 100 µM | TGI (HCT-15 colon): 36.4 µM | TGI (SF-539 CNS): 40.4 µM | TGI (UO-31 renal): > 100 µM | TGI (K-562 leukemia): > 100 µM | TGI (NCI/ADR-RES ovarian): 37.4 µM | TGI (RXF 393 renal): 39.8 µM | TGI (SF-268 CNS): 88.3 µM | TGI (DU-145 prostate): 34 µM | TGI (HCT-116 colon): 31.8 µM | TGI (UACC-257 melanoma): 30.3 µM | TGI (HT29 colon): 58.9 µM | TGI (SK-MEL-5 melanoma): 71.7 µM | TGI (CCRF-CEM leukemia): 75.3 µM | TGI (MDA-MB-435): 43.6 µM | TGI (HS 578T breast): > 100 µM | TGI (SK-OV-3 ovarian): 57.8 µM | TGI (U251 CNS): 36.6 µM | TGI (NCI-H460 lung): > 100 µM | TGI (RPMI-8226 leukemia): > 100 µM | TGI (IGROV1 ovarian): 35.7 µM | TGI (SW-620 colon): 44 µM | TGI (KM12 colon): 40.5 µM | TGI (OVCAR-3 ovarian): 31.2 µM | TGI (SK-MEL-2 melanoma): > 100 µM | TGI (MCF7 breast): > 100 µM | TGI (TK-10 renal): 31.8 µM | TGI (NCI-H23 lung): > 100 µM | TGI (UACC-62 melanoma): 31.7 µM | TGI (PC-3 prostate): 37.3 µM | TGI (OVCAR-5 ovarian): > 100 µM | TGI (CAKI-1 renal): 47.2 µM | TGI (A549 NSCLC): > 100 µM | TGI (HCC-2998 colon): > 100 µM | TGI (MDA-MB-231 breast): 37.2 µM
